These are literature values, as cited in patent US20220395499A1, “C[…] AFTER 5HT2A AGONISTS ADMINISTRATION” (Mind Medicine, Inc., priority 2021, published 2022).

Like-named read-outs stand apart in the source and are kept apart here.

The conditions of series [1]: LSD alone, no dose stated.
Series [2] concerns the target T1, 5HT2A receptor (Homo sapiens, UniProt P28223).
T1 construct: host or cells: human subjects (in vivo, oral dosing)

Series [3] deals with CYP3A4 (Homo sapiens, UniProt P08684).
Sequence of CYP3A4 (P08684 whole entry): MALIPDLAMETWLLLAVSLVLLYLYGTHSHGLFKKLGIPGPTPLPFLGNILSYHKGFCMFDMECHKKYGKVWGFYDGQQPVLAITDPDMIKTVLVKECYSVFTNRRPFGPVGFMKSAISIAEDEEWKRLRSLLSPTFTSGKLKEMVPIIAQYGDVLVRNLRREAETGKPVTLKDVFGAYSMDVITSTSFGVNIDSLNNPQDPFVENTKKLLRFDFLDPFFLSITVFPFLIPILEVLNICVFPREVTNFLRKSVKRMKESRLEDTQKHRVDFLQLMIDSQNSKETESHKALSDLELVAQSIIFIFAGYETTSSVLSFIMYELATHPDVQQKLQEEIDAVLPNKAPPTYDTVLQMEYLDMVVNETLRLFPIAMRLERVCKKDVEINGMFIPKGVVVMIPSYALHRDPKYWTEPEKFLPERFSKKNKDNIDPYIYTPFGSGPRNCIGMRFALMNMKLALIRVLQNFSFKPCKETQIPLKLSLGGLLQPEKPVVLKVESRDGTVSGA
The target of series [4] is 5-HT2B receptors (Homo sapiens, UniProt P41595).
Sequence of 5-HT2B receptors (P41595 whole entry): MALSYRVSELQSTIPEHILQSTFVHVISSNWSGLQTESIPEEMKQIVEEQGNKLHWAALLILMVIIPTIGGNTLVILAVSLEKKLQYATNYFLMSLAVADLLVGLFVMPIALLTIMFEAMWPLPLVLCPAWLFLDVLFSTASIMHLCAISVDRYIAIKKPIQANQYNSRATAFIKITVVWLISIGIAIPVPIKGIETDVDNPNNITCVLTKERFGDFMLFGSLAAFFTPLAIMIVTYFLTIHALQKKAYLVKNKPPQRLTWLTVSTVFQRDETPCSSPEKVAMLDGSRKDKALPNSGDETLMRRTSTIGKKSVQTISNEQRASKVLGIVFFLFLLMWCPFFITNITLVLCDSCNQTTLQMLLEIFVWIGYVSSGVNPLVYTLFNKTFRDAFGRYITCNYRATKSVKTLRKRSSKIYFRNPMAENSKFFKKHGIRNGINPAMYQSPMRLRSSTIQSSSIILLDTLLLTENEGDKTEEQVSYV
Series [5] concerns adrenergic, dopaminergic, histaminergic, or muscarinic receptors.
Test in series [6]: not given
This is another data set of the same source.

[7] abbreviates: single 34-mg dose of pimavanserin.

T1 sequence (P28223 whole entry): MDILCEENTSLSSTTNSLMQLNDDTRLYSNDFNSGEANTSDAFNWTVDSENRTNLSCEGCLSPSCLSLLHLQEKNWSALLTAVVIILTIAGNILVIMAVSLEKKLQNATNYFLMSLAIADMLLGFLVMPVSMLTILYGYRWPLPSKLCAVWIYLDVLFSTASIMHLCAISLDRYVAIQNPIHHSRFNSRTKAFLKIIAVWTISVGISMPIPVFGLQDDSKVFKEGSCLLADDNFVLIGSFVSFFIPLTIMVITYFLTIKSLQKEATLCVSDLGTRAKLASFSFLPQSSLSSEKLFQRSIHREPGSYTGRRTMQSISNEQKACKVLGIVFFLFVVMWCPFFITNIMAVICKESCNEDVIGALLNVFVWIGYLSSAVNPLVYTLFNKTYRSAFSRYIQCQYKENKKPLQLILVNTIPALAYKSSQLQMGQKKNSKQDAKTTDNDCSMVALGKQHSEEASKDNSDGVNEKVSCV

As to `CCN(CC)C(=O)[C@@H]1C=C2c3cccc4[nH]cc(c34)C[C@H]2N(C)C1` [LSD, Lysergic acid diethylamide], the “usual duration of action” value in series [1] was 8 to 12 h.

For the molecule `O=C(c1ccc(F)cc1)C1CCN(CCn2c(=O)[nH]c3ccccc3c2=O)CC1` [ketanserin], the “effect on the LSD experience” value in series [2] (ketanserin 40 mg orally 1 hour prior to a high dose of LSD of 200 μg, Liechti) is given as “prevented the LSD experience”; in series [2] (ketanserin 40 mg orally 1 hour prior to oral LSD at a moderate dose (70-100 μg), Preller et al., 2017) it was “prevent the LSD experience almost completely”.

Turning to `CC(C)COc1ccc(CNC(=O)N(Cc2ccc(F)cc2)C2CCN(C)CC2)cc1` [Pimavanserin, pimavanserin], in series [3], the “CYP3A4 inhibition or induction” value is recorded as “does not cause significant CYP3A4 inhibition or induction”. In addition, under setting [7], the half-life entry is reported as “approximately 57 hours”, the “mean (SD) apparent volume of distribution” value is listed as 2,173 (307) L and the “time to maximum plasma concentration” value is “six”. Besides, the “affinity for 5-HT2B receptors” value in series [4] is listed as “no affinity”. Also, the “antagonism of adrenergic, dopaminergic, histaminergic, or muscarinic receptors” value in series [5] is listed as “does not induce clinically significant antagonism”. Also, in series [6], the plasma protein binding entry is listed as “highly bound to plasma protein”.

On to `CC(C)COc1ccc(CNC(=O)N(Cc2ccc(F)cc2)C2CCNCC2)cc1` [AC-279], for which the “half-life of the active N-desmethylated metabolite” value (metabolite of pimavanserin) is 200 h.
